From patent US9617244B2, “Antibacterial quinoline derivatives” (JANSSEN PHARMACEUTICA NV, priority 2012, dated 2017)
≈ marks a conversion by molar mass, not a printed value.

Legend:
[1] = test system: Mycobacterium smegmatis (ATCC607); assay: In-vitro anti-bacterial activity against strain M. Smegmatis ATCC607; assay type: cell-based; conditions: 90% inhibitory concentration for bacterial growth, Alamar Blue fluorescence; for IC90 MSM 607: 48 hours; for IC90: Mycolicibacterium smegmatis, ATCC607, 48 h, read-out: IC90 MSM 607
Procedure, shortened: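 Serial five-fold compound dilutions in BSA-supplemented wells, inoculated with ~250 CFU/well in Mueller-Hinton broth, incubated 48 h at 37 °C, 5% CO2. Growth read by Alamar Blue fluorescence (ex 530/em 590 nm); IC90 in μg/ml.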

[2] = test system: Staphylococcus aureus (ATCC29213); assay: In-vitro anti-bacterial activity, microtitre plate assay, IC90 determination (non-mycobacterial strains); assay type: cell-based; conditions: 90% inhibitory concentration for bacterial growth, resazurin fluorescence; for IC90 STA B29213: 24 hours; for IC90: Staphylococcus aureus, ATCC29213, 24 h, read-out: IC90 STA B29213
Procedure, shortened: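 Inoculum of about 100 TCID50 (10–60 CFU/well) in Mueller-Hinton broth, serial five-fold compound dilutions, 24 h at 37 °C in air. Growth read by resazurin fluorescence (ex 530/em 590 nm); IC90 in μg/ml as 90% growth inhibition.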

Row | Compound | IC90 MSM 607 [1] [µg/mL] | IC90 STA B29213 [2] [µg/mL] | IC90 [1] [µg/mL] | IC90 [2] [µg/mL]
1 | COc1nc2ccc(S(C)(=O)=O)cc2cc1C(c1cccc(Cl)c1)C1(O)CCNC(Cc2ccc(F)cc2F)C1 (stereo not drawn) [Compound 326] | 4.78 (≈ 8.14 µM) | 5.37 (≈ 9.15 µM) |  | 
2 | CS(=O)(=O)c1ccc2[nH]c(=O)c(C(c3cccc(Cl)c3)C3(O)CCNC(Cc4ccc(F)cc4F)C3)cc2c1 (stereo not drawn) [Compound 327] | >15.31 | >15.31 |  | 
3 | CS(=O)(=O)c1ccc2[nH]c(=O)c(C(c3cccc(Cl)c3)C3(O)CCNC(Cc4ccc(F)cc4F)C3)cc2c1 (stereo not drawn) [Compound 328] | 12.16 (≈ 21.2 µM) | 15.31 (≈ 26.7 µM) |  | 
4 | CSc1ccc2[nH]c(=O)c(C(c3cccc(Cl)c3)C3(O)CCNC(Cc4ccc(F)cc4F)C3)cc2c1 (stereo not drawn) [Compound 329] | 7.27 (≈ 13.4 µM) | 7.27 (≈ 13.4 µM) |  | 
5 | COc1nc2ccc(F)cc2cc1C(c1ccc(Cl)cc1)C1(O)CCNC(c2ccc(F)cc2C)C1 (stereo not drawn) [Compound 330] | 1.04 (≈ 2.04 µM) | 2.08 (≈ 4.09 µM) |  | 
6 | COc1nc2ccc(F)cc2cc1C(c1ccc(Cl)cc1)C1(O)CCNC(c2ccc(F)cc2C)C1 (stereo not drawn) [Compound 331] | 0.94 (≈ 1.85 µM) | 1.06 (≈ 2.08 µM) |  | 
7 | COc1nc2ccc(F)cc2cc1C(c1ccc(Cl)cc1)C1(O)CCNC(c2ccc(F)cc2C)C1 (stereo not drawn) [Compound 332] | 2.20 (≈ 4.32 µM) | 4.38 (≈ 8.61 µM) |  | 
8 | CSc1ccc2[nH]c(=O)c(C(c3ccc(Cl)cc3)C3(O)CCNC(Cc4ccc(F)cc4)C3)cc2c1 (stereo not drawn) [Compound 333] | 3.53 (≈ 6.75 µM) | 2.50 (≈ 4.78 µM) |  | 
9 | CSc1ccc2[nH]c(=O)c(C(c3ccc(Cl)cc3)C3(O)CCNC(Cc4ccc(F)cc4)C3)cc2c1 (stereo not drawn) [Compound 334] | 7.04 (≈ 13.5 µM) | 8.87 (≈ 17 µM) |  | 
10 | O=c1[nH]c2ccc(Br)cc2cc1C(c1ccc(Cl)cc1)C1(O)CCNCC1Cc1cccc(F)c1 (stereo not drawn) [Compound 336] | 7.00 (≈ 12.6 µM) | 3.51 (≈ 6.31 µM) |  | 
11 | O=c1[nH]c2ccc(Br)cc2cc1C(c1ccc(Cl)cc1)C1(O)CCNC(Cc2ccc(F)cc2)C1 (stereo not drawn) [Compound 341] |  | 2.36 (≈ 4.25 µM) | 4.71 (≈ 8.47 µM) | 
12 | O=c1[nH]c2ccc(Br)cc2cc1C(c1ccc(Cl)cc1)C1(O)CCNC(Cc2ccc(F)cc2)C1 (stereo not drawn) [Compound 342] | 3.74 (≈ 6.73 µM) | 7.46 (≈ 13.4 µM) |  | 
13 | O=c1[nH]c2ccc(Cl)cc2cc1C(c1ccc(Cl)cc1)C1(O)CCNC(Cc2ccc(F)cc2)C1 (stereo not drawn) [Compound 343] |  |  | 4.35 (≈ 8.51 µM) | 6.9 (≈ 13.5 µM)
14 | O=c1[nH]c2ccc(Cl)cc2cc1C(c1ccc(Cl)cc1)C1(O)CCNC(Cc2ccc(F)cc2)C1 (stereo not drawn) [Compound 344] | 8.68 (≈ 17 µM) | 3.46 (≈ 6.77 µM) |  | 
15 | COc1nc2ccc(Cl)cc2cc1C(c1ccc(Cl)cc1)C1(O)CCNC(Cc2ccc(F)cc2)C1 (stereo not drawn) [Compound 345] | 3.48 (≈ 6.62 µM) | 4.38 (≈ 8.34 µM) |  | 
16 | COc1nc2ccc(Cl)cc2cc1C(c1ccc(Cl)cc1)C1(O)CCNC(Cc2ccc(F)cc2)C1 (stereo not drawn) [Compound 346] | 1.69 (≈ 3.22 µM) | 2.13 (≈ 4.05 µM) |  | 
17 | COc1nc2ccc(Cl)cc2cc1C(c1ccc(Cl)cc1)C1(O)CCNC(Cc2ccc(F)cc2)C1 (stereo not drawn) [Compound 347] | 1.70 (≈ 3.24 µM) | 4.27 (≈ 8.13 µM) |  | 
18 | COc1nc2ccc(Cl)cc2cc1C(c1ccc(Cl)cc1)C1(O)CCNC(Cc2ccc(F)cc2)C1 (stereo not drawn) [Compound 348] | 1.67 (≈ 3.18 µM) | 4.19 (≈ 7.97 µM) |  | 
19 | CSc1ccc(C(c2cc3cc(Cl)ccc3[nH]c2=O)C2(O)CCNC(c3ccc(F)cc3C)C2)cc1 (stereo not drawn) [Compound 349] | 7.04 (≈ 13.5 µM) | 7.04 (≈ 13.5 µM) |  | 
20 | CSc1ccc(C(c2cc3cc(Cl)ccc3[nH]c2=O)C2(O)CCNC(c3ccc(F)cc3C)C2)cc1 (stereo not drawn) [Compound 350] | 1.77 (≈ 3.38 µM) | 2.80 (≈ 5.35 µM) |  | 
21 | COc1nc2ccc(Cl)cc2cc1C(c1ccc(SC)cc1)C1(O)CCNC(c2ccc(F)cc2C)C1 (stereo not drawn) [Compound 353] | 1.73 (≈ 3.22 µM) | 2.18 (≈ 4.06 µM) |  | 
22 | COc1nc2ccc(Cl)cc2cc1C(c1ccc(SC)cc1)C1(O)CCNC(c2ccc(F)cc2C)C1 (stereo not drawn) [Compound 354] | 3.14 (≈ 5.85 µM) | 3.95 (≈ 7.35 µM) |  | 
23 | C=CC1CC(O)(C(c2ccc(Cl)cc2)c2cc3cc(Br)ccc3[nH]c2=O)CCN1 (stereo not drawn) [Compound 359] |  |  | 10.2 (≈ 21.5 µM) | 12.8 (≈ 27.1 µM)

Row | Compound | IC90 MSM 607 [1] [µg/mL] | IC90 STA B29213 [2] [µg/mL] | IC90 [1] [µg/mL] | IC90 [2] [µg/mL]
24 | C=CC1CC(O)(C(c2ccc(Cl)cc2)c2cc3cc(Br)ccc3[nH]c2=O)CCN1 (stereo not drawn) [Compound 360] | 6.42 (≈ 13.6 µM) | 12.82 (≈ 27.1 µM) |  | 
25 | C=CC1CC(O)(C(c2ccc(Cl)cc2)c2cc3cc(Br)ccc3[nH]c2=O)CCN1 (stereo not drawn) [Compound 361] | 6.42 (≈ 13.6 µM) | 12.82 (≈ 27.1 µM) |  | 
26 | C=CC1CC(O)(C(c2ccc(Cl)cc2)c2cc3cc(Br)ccc3[nH]c2=O)CCN1 (stereo not drawn) [Compound 362] | 10.18 (≈ 21.5 µM) | 12.82 (≈ 27.1 µM) |  | 
27 | O=c1[nH]c2ccc(Br)cc2cc1C(c1ccc(Cl)cc1)C1(O)CCNC(Cc2ccc(F)cc2)C1 (stereo not drawn) [Compound 363] | 3.74 (≈ 6.73 µM) | 1.87 (≈ 3.36 µM) |  | 
28 | O=c1[nH]c2ccc(Br)cc2cc1C(c1ccc(Cl)cc1)C1(O)CCNC(Cc2ccc(F)cc2)C1 (stereo not drawn) [Compound 364] | 2.97 (≈ 5.34 µM) | 3.74 (≈ 6.73 µM) |  | 
29 | O=c1[nH]c2ccc(Br)cc2cc1C(c1ccc(Cl)cc1)C1(O)CCNC(Cc2ccc(F)cc2)C1 (stereo not drawn) [Compound 365] | 3.74 (≈ 6.73 µM) | 3.74 (≈ 6.73 µM) |  | 
30 | COc1nc2ccc(Cl)cc2cc1C(c1ccc(S(C)(=O)=O)cc1)C1(O)CCNC(c2ccc(F)cc2C)C1 (stereo not drawn) [Compound 368] | 14.06 (≈ 24.7 µM) | 17.71 (≈ 31.1 µM) |  | 
31 | COc1nc2ccc(Cl)cc2cc1C(c1ccc(S(C)(=O)=O)cc1)C1(O)CCNC(c2ccc(F)cc2C)C1 (stereo not drawn) [Compound 369] | 4.57 (≈ 8.03 µM) | 9.12 (≈ 16 µM) |  | 
32 | COc1nc2ccc(F)cc2cc1C(c1ccc(Cl)cc1)C1(O)CCNC(Cc2ccccc2)C1 (stereo not drawn) [Compound 370] | 1.55 (≈ 3.16 µM) | 3.09 (≈ 6.29 µM) |  | 
33 | O=c1[nH]c2ccc(F)cc2cc1C(c1ccc(Cl)cc1)C1(O)CCNC(Cc2ccccc2)C1 (stereo not drawn) [Compound 375] | 12.90 (≈ 27 µM) | >12.90 |  | 
34 | O=c1[nH]c2ccc(F)cc2cc1C(c1ccc(Cl)cc1)C1(O)CCNC(Cc2ccccc2)C1 (stereo not drawn) [Compound 376] | 2.57 (≈ 5.39 µM) | 3.24 (≈ 6.79 µM) |  | 
35 | Cc1cc(F)ccc1C1CC(O)(C(c2ccc(S(C)(=O)=O)cc2)c2cc3cc(Cl)ccc3[nH]c2=O)CCN1 (stereo not drawn) [Compound 377] |  |  | > 14.9 | > 14.9
36 | Cc1cc(F)ccc1C1CC(O)(C(c2ccc(S(C)(=O)=O)cc2)c2cc3cc(Cl)ccc3[nH]c2=O)CCN1 (stereo not drawn) [Compound 378] | 11.80 (≈ 21.3 µM) | 14.86 (≈ 26.8 µM) |  | 
37 | COc1nc2ccc(Br)cc2cc1C(c1ccc(Cl)cc1)C1(O)CCNC(Cc2ccccn2)C1 (stereo not drawn) [Compound 379] | 2.77 (≈ 5.01 µM) | 3.49 (≈ 6.31 µM) |  | 
38 | COc1nc2ccc(Br)cc2cc1C(c1ccc(Cl)cc1)C1(O)CCNC(Cc2ccccn2)C1 (stereo not drawn) [Compound 380] | 4.10 (≈ 7.42 µM) | 5.16 (≈ 9.33 µM) |  | 
39 | COc1nc2ccc(Br)cc2cc1C(c1ccc(Cl)cc1)C1(O)CCNC(Cc2ccccn2)C1 (stereo not drawn) [Compound 381] | 1.75 (≈ 3.17 µM) | 3.49 (≈ 6.31 µM) |  | 
40 | COc1nc2ccc(SC(C)C)cc2cc1C(c1ccc(Cl)cc1)C1(O)CCNC(Cc2ccccc2)C1 (stereo not drawn) [Compound 382] |  |  | 2.18 (≈ 3.98 µM) | 3.45 (≈ 6.31 µM)
41 | COc1nc2ccc(SC(C)C)cc2cc1C(c1ccc(Cl)cc1)C1(O)CCNC(Cc2ccccc2)C1 (stereo not drawn) [Compound 383] | 2.74 (≈ 5.01 µM) | 3.45 (≈ 6.31 µM) |  | 
42 | COc1nc2ccc(SC(C)C)cc2cc1C(c1ccc(Cl)cc1)C1(O)CCNC(Cc2ccccc2)C1 (stereo not drawn) [Compound 384] | 2.18 (≈ 3.98 µM) | 3.45 (≈ 6.31 µM) |  | 
43 | COc1nc2ccc(SC(C)C)cc2cc1C(c1ccc(Cl)cc1)C1(O)CCNC(Cc2ccccc2)C1 (stereo not drawn) [Compound 385] | 1.37 (≈ 2.5 µM) | 1.73 (≈ 3.16 µM) |  | 
44 | C=CCC1CNCCC1(O)C(c1cccc(Cl)c1)c1cc2cc(Cl)ccc2nc1OC (stereo not drawn) [Compound 394] |  |  | 2.29 (≈ 5.01 µM) | 2.89 (≈ 6.32 µM)
45 | COc1nc2ccc(SC)cc2cc1C(c1ccc(Cl)cc1)C1(O)CCNCC1(C)C (stereo not drawn) [Compound 396] |  |  | 5.75 (≈ 12.6 µM) | 5.75 (≈ 12.6 µM)
